We go through four compounds from US9771625B2, “Monoamine oxidase inhibitors and methods for treatment and diagnosis of prostate cancer” (UNIVERSITY OF SOUTHERN CALIFORNIA, priority 2011, dated 2017).

The test system of data set [1] is control and MAO-A-overexpressing PC-3 tumor xenografts. Nature of the data set: In vivo and ex vivo MHI-148 NIR imaging of PC-3 tumor xenografts. The arrangement: species or system nude mice. From the text:
FIG. 19 MAO-A enhanced NIR dye uptake in PC-3 tumor xenografts. (A) Representative in vivo MHI-148 NIR imaging (i.p. injection, 10 nmol/20 g) of nude mice subcutaneously implanted with control (left flank) and MAO-A-overexpressing (right flank) PC-3 cells. Arrows point to tumor xenografts. […] (C) Quantitation of tumor NIR intensity in (A) by determining total emission divided by tumor weight (5 mice). *, p<0.05.
A class of fluorescent heptamethine cyanines with near-infrared (NIR) emission maxima, such as MHI-148 dye, which has been identified recently, are non-toxic and have dual functions as tumor-specific targeting and imaging modalities. These dyes, partially mediated by hypoxia, are specifically retained in cancer but not normal cells, and also in tumor xenografts as well as spontaneous tumors in transgenic mice. […] This would allow the development and validation of novel PCa-seeking MAO-A inhibitors with acquired synergistic tumor-targeting abilities as new agents for PCa therapies with minimal systemic host toxicity.

Data set [2] concerns tumor xenografts and spontaneous tumors in transgenic mice. The note with it: cited from earlier work.
Another data set has as its target T1, MAO A (Homo sapiens, UniProt P21397).
T1 construct: This cell line was selected due to its high levels of the expressed MAO-A; endogenous in cells; host or cells: C4-2B human prostate cancer cells
T1 sequence (P21397 1-527): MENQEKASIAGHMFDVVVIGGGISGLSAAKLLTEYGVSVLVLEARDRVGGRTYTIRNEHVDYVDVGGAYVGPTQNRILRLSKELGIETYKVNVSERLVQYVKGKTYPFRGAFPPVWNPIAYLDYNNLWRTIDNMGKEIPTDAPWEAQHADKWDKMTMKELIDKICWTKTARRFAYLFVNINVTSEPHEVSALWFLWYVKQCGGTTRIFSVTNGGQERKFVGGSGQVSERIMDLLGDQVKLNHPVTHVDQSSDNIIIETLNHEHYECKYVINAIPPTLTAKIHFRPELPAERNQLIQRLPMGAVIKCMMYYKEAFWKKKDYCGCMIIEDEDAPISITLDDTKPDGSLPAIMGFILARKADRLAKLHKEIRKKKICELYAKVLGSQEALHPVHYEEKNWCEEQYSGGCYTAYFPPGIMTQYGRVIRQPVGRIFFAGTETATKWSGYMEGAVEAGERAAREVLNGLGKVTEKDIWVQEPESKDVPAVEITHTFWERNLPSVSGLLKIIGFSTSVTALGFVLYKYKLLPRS
Nature of the data set: MAO A inhibition assay in C4-2B cells with radiolabeled substrate (C-14 serotonin). In kind it is cell-based. The protocol:
Compound 10 was pre-incubated with 1×10^6 prostate C4-2B cells at 37° C. for 20 min. Then, MAO A substrate C-14 serotonin was added to the incubation solution for 37° C. 20 min. At the end of the incubation, the reaction product was extracted and the radioactivity was counted. The MAO-A activity was expressed as […] product formed/20 min/mg protein. The activity without the presence of inhibitor, compound 10, was taken as 100%.
In order to test an inhibitory activity of the MHI-clorgyline 10, a standard MAO A inhibition assay was carried out in C4-2B cells using radiolabeled substrates.

The test system of data set [3] is C4-2B prostate cancer cells. Nature of the data set: Laser-scanning confocal NIR imaging of cellular uptake and localization. The note with it: C4-2B PCa cells. Type of data set: cell-based, human. An excerpt:
Moreover, the two dyes also have strong emission at 820-860 nm upon excitation at 750-780 nm, which can be easily detected and visualized by NIR imaging equipment and laser-scanning confocal microscopes. Here, we resorted to the use of Zeiss LSM 510 confocal microscope as the imaging equipment. Although cellular uptake of the conjugate was uncertain, due to the similarity in structure, MHI-clorgyline conjugates were expected to have similar fluorescence properties as the NIR dye itself. Therefore, NIR imaging with laser-scanning confocal microscope was used to examine the cellular uptake of MHI-clorgyline in human prostate epithelial cancer cells (C4-2B). This cell line was selected due to its high levels of the expressed MAO-A.
(§1) An imaging study with the newly synthesized MHI-clorgyline 10 was carried out (FIG. 11).

The test system of a further data set is live cells. Kind of data set: Preliminary imaging study of IR-783 dye in live cells. Type of data set: cell-based. The protocol: as §1
The subject of a further data set is tumor xenografts. Nature of the data set: Growth of tumor xenografts in vivo. An excerpt:
(§2) In the present invention, it was unexpectedly discovered that increase of MAO-A activity or expression is correlated with the progression of human prostate cancer. […] This finding establishes MAOs as a target for cancer.

Data set [4] has as its system human prostate cancer cells. Nature of the data set: Growth of prostate cancer cells in vitro. In kind it is cell-based.
Excerpt: as §2

For the compound `CC1(C)C(/C=C/C2=C(Cl)C(=C/C=C3/N(CCCCCC(=O)O)c4ccccc4C3(C)C)/CCC2)=[N+](CCCCCC(=O)O)c2ccccc21` [MHI-148], the “NIR dye uptake in tumor xenografts” value in data set [1] (MAO-A-overexpressing vs control PC-3 xenografts, i.p. injection, 10 nmol/20 g) is “enhanced uptake”. The “ex vivo NIR signal in tumor tissues versus organs” value in data set [1] (ex vivo NIR imaging, nude mice with PC-3 xenografts) is on record as “Tumor tissues but not organs displayed strong signals”. For the same compound, the “retention in cancer cells versus normal cells” value in data set [2] is reported as “retained in cancer cells but not normal cells”.
With `C#CCN(CCCOc1ccc(Cl)cc1Cl)CCCSC(=O)CCCCCN1/C(=C\C=C2/CCCC(/C=C/C3=[N+](CCCCCC(=O)O)c4ccccc4C3(C)C)=C2Cl)C(C)(C)c2ccccc21` [Compound 10], the IC50 against MAO A (37° C., 20 min pre-incubation, C-14 serotonin substrate) worked out at 21.8 µM. On MAO A (data not shown), the “MAO A inhibitory activity compared with clorgyline” value is listed as “lesser than that of clorgyline itself”. Moreover, the subcellular localization result in data set [3] (co-staining with mitochondria-specific dye) is “localized in the mitochondria”. Moreover, the cellular accumulation entry in data set [3] (confocal imaging) is reported as “rapid accumulation”.
With `CC1(C)C(=CC=C2CCCC(C=CC3=[N+](CCCCS(=O)(=O)[O-])c4ccccc4C3(C)C)=C2Cl)N(CCCCS(=O)(=O)[O-])c2ccccc21.[Na+]` [IR-783], the “retention in cancer cells versus normal cells” value in data set [2] was “retained in cancer cells but not normal cells”. For the same compound, in the data set with live cells, the subcellular localization result is recorded as “co-localized in mitochondria”.
On to `C#CCN(C)CCCOc1ccc(Cl)cc1Cl` [clorgyline], for which the “growth of tumor xenografts” value in the data set on tumor xenografts is reported as “repressing the growth”. Besides, the “growth of human prostate cancer cells” value in data set [4] is “repressing the growth”.
